Experimental findings from patent publication US20120214862A1, “MODULATION OF FACTOR 7 EXPRESSION” (ISIS Pharmaceuticals, Inc., priority 2009, published 2012) are described below.

What all share (format): cell-based
Data set [1] relates to human Factor 7 mRNA. As to the kind of experiment: Inhibition of human Factor 7 mRNA by 2-10-2 MOE shortmers in HepB3 cells, electroporation, 1,000 nM. Particulars: electroporation, 1,000 nM oligonucleotide, approximately 24 hours, relative to untreated control cells. The text has this: Short antisense oligonucleotides (shortmers) were designed to target a Factor 7 nucleic acid. The shortmers in Table 17 were designed as 2-10-2 MOE gapmers. The gapmers are 14 nucleotides in length, wherein the central gap segment is comprised of 10 2′-deoxynucleotides and is flanked on both sides (in the 5′ and 3′ directions) by wings comprising 2 nucleotides each. Each nucleotide in the 5′ wing segment and each nucleotide in the 3′ wing segment has a 2′-MOE modification. The internucleoside linkages throughout each gapmer are phosphorothioate (P═S) linkages. All cytidine residues throughout each gapmer are 5-methylcytidines.
Shortmers were evaluated for their ability to reduce human Factor 7 mRNA in HepB3 cells and compared with one 5-10-5 chimeric oligonucleotide from Table 16, ISIS 407939. HepB3 cells at a density of 20,000 cells per well in a 96-well plate were transfected using electroporation with 1,000 nM of antisense oligonucleotide. After a treatment period of approximately 24 hours, RNA was isolated from the cells and Factor 7 mRNA levels were measured by real-time RT-PCR, as described herein. Factor 7 mRNA levels were adjusted according to total RNA content as measured by RIBOGREEN®. Results are presented in Table 17 as percent inhibition of Factor 7 mRNA, relative to untreated control cells. ISIS 407939 is the first oligonucleotide in […] to which the shortmers were compared, and is marked by an asterisk (*).

Data set [2] deals with human Factor 7 mRNA. As to the kind of experiment: Antisense inhibition of human Factor 7 mRNA in HepB3 cells, lipofectin, 50 nM, real-time RT-PCR. The following applies: HepB3 cells, lipofectin, 50 nM antisense oligonucleotide, approximately 24 hours, primer probe set RTS 2927, relative to untreated control. The essentials:
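Readout is percent reduction of Factor 7 message compared with untreated cells, after correction for total RNA content quantified by RIBOGREEN®. Cultures were seeded at 4,000 cells per well and treated for about 24 hours before RNA extraction.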

Data set [3] deals with human Factor 7 mRNA. In words: Dose-dependent antisense inhibition of human Factor 7 in HepB3 cells, transfection with lipofectin. Particulars: Example 5, HepB3, lipofectin, ~16 h. Here is the method:
Cells were plated at a density of 4,000 cells per well and treated with lipofectin reagent with 3.125 nM, 6.25 nM, 12.5 nM, 25 nM, 50 nM, and 100 nM concentrations of antisense oligonucleotide, as indicated in Table 3. After a treatment period of approximately 16 hours, RNA was isolated from the cells and Factor 7 mRNA levels were measured by real-time RT-PCR, as described herein. Human Factor 7 primer probe set RTS 2927 (forward sequence: […], incorporated herein as SEQ ID NO: 164; reverse sequence: […], incorporated herein as SEQ ID NO: 165; probe sequence: TGGGTGGTCTCCGCGGCCX, incorporated herein as SEQ ID NO: 166) was used to measure mRNA levels. Factor 7 mRNA levels were adjusted according to total RNA content as measured by RIBOGREEN®. Results are presented as percent inhibition of Factor 7, relative to untreated control cells.
Cells were plated at a density of 4,000 cells per well and transfected using lipofectin reagent with 6.25 nM, 12.5 nM, 25.0 nM, 50.0 nM, and 100.0 nM concentrations of antisense oligonucleotide, as indicated in Table 7. After a treatment period of approximately 16 hours, RNA was isolated from the cells and Factor 7 mRNA levels were measured by real-time RT-PCR, as described herein. Human Factor 7 primer probe set RTS 2927 was used to measure mRNA levels. Factor 7 mRNA levels were adjusted according to total RNA content as measured by RIBOGREEN®. Results are presented as percent inhibition of Factor 7, relative to untreated control cells.
Cells were plated at a density of 4,000 cells per well and transfected using lipofectin reagent with 3.125 nM, 6.25 nM, 12.5 nM, 25 nM, 50 nM, and 100 nM concentrations of antisense oligonucleotide, as specified in Table 14. After a treatment period of approximately 16 hours, RNA was isolated from the cells and Factor 7 mRNA levels were measured by quantitative real-time PCR. Human Factor 7 primer probe set RTS 2927 was used to measure mRNA levels. Factor 7 mRNA levels were adjusted according to total RNA content, as measured by RIBOGREEN®. Results are presented as percent inhibition of Factor 7, relative to untreated control cells.

In the oligonucleotide strings, read from the 5' end, every base follows the letter of its sugar. An asterisk marks phosphorothioate; unmarked linkages are phosphodiester. Other units and linkages are bracketed, terminal groups are in braces. A string of capitals states the bases alone. e = 2'-O-(2-methoxyethyl) (MOE); [5mC] = 5-methylcytosine; d = 2'-deoxy (DNA)

Turning to “435653 (antisense eA*eT*d[5mC]*dA*dG*d[5mC]*dT*dG*dG*dT*d[5mC]*dA*eT*e[5mC]) [compound 435653]”, the “% inhibition of human Factor 7 mRNA” value in data set [1] amounted to 32%.
Same read-out and setting: to “435807 (antisense e[5mC]*eA*dG*dT*dA*d[5mC]*dT*dT*d[5mC]*d[5mC]*d[5mC]*dA*e[5mC]*eG) [compound 435807]” belongs 35%; to “435772 (antisense eG*e[5mC]*dA*dG*dT*d[5mC]*d[5mC]*d[5mC]*dT*dG*d[5mC]*dT*e[5mC]*eA) [compound 435772]”, 42%.
As for “435675 (antisense eT*eG*dT*d[5mC]*dG*dA*dA*dA*d[5mC]*dA*dG*dT*eG*eG) [compound 435675]”, in data set [1], the “% inhibition of human Factor 7 mRNA” value worked out at 24%.
Still for that read-out and setting: under “435815 (antisense e[5mC]*eT*d[5mC]*dT*dT*d[5mC]*d[5mC]*dG*dA*dG*d[5mC]*dA*eG*e[5mC]) [compound 435815]” stands 59%.
The same measure, in the same setting: under “435723 (antisense eG*e[5mC]*d[5mC]*dA*dG*d[5mC]*dA*dG*dA*dT*d[5mC]*dA*e[5mC]*eG) [compound 435723]” stands 68%; under “435686 (antisense e[5mC]*eA*dG*dT*dG*dA*dG*dG*dA*d[5mC]*d[5mC]*dA*e[5mC]*eG) [compound 435686]”, 31%.
Same read-out and setting: under “435733 (antisense e[5mC]*eT*dG*dA*dA*dT*dT*dG*dT*d[5mC]*dT*dG*eA*eA) [compound 435733]” stands 5%; under “435833 (antisense eA*eG*dA*d[5mC]*dA*d[5mC]*dT*dT*dG*dA*dG*dA*eG*e[5mC]) [compound 435833]”, 24%; under “435846 (antisense eT*eG*dG*dA*dG*dA*dG*dA*d[5mC]*d[5mC]*dA*dA*eT*eG) [compound 435846]”, 7%.
Turning to “435638 (antisense eA*eG*d[5mC]*d[5mC]*d[5mC]*dT*dG*dA*dA*dG*d[5mC]*d[5mC]*e[5mC]*eA) [compound 435638]”, the “% inhibition of human Factor 7 mRNA” value in data set [1] is on record as 55%.
For “435761 (antisense e[5mC]*eA*dG*dA*dT*dG*dA*dA*dA*dA*d[5mC]*dT*eT*eG) [compound 435761]”, in data set [1], the “% inhibition of human Factor 7 mRNA” value is reported as 5%.
For “435771 (antisense eG*eT*d[5mC]*dA*dT*dA*dA*dG*dG*d[5mC]*d[5mC]*dA*eT*eG) [compound 435771]”, the “% inhibition of human Factor 7 mRNA” value in data set [1] is 13%.
Still for that read-out and setting: to “435667 (antisense eA*eA*dT*dT*d[5mC]*dG*dG*d[5mC]*d[5mC]*dT*dT*dG*eG*eG) [compound 435667]” belongs 16%; to “435685 (antisense eA*eG*dG*dA*d[5mC]*d[5mC]*dA*d[5mC]*dG*dG*dG*d[5mC]*eT*eG) [compound 435685]”, 40%; to “435850 (antisense e[5mC]*eT*dT*dG*dG*d[5mC]*d[5mC]*dA*dG*dT*dG*dT*eG*eG) [compound 435850]”, 15%.
Same read-out and setting: to “435798 (antisense eA*eG*d[5mC]*d[5mC]*dA*dG*dA*d[5mC]*dT*dT*dT*d[5mC]*e[5mC]*eT) [compound 435798]” belongs 54%.
For the substance “435847 (antisense eT*eG*dG*dT*dG*dT*dG*d[5mC]*dA*d[5mC]*dA*d[5mC]*eA*eT) [compound 435847]”, the “% inhibition of human Factor 7 mRNA” value in data set [1] stood at 36%.
Same read-out and setting: to “435817 (antisense e[5mC]*eT*dG*dA*dG*d[5mC]*dT*dT*dG*dG*d[5mC]*dA*e[5mC]*e[5mC]) [compound 435817]” belongs 39%; to “435729 (antisense eA*e[5mC]*dA*dG*d[5mC]*dA*d[5mC]*dA*d[5mC]*dA*dT*dG*eG*eA) [compound 435729]”, 30%.
On the same count and under the same terms, under “435779 (antisense eT*eG*dA*dG*d[5mC]*dG*d[5mC]*dG*dG*dA*dA*dG*eA*eA) [compound 435779]” stands 50%; under “435660 (antisense e[5mC]*e[5mC]*dG*dT*d[5mC]*dT*dG*d[5mC]*d[5mC]*dA*dG*d[5mC]*eA*eG) [compound 435660]”, 58%; under “435844 (antisense eT*eG*dG*d[5mC]*d[5mC]*dA*dG*dT*dG*dG*d[5mC]*d[5mC]*eT*e[5mC]) [compound 435844]”, 30%.
Same read-out and setting: to “435849 (antisense eT*eG*d[5mC]*d[5mC]*dG*dT*dA*dG*dT*dG*dG*d[5mC]*e[5mC]*eG) [compound 435849]” belongs 31%.
In the case of “435739 (antisense e[5mC]*eA*dT*d[5mC]*dT*d[5mC]*dA*dG*dA*dG*dG*dA*eT*eG) [compound 435739]”, the “% inhibition of human Factor 7 mRNA” value in data set [1] came out at 5%.
Same read-out and setting: to “435747 (antisense eA*eT*dA*dT*d[5mC]*dA*dT*dT*dG*dA*d[5mC]*dA*eA*eG) [compound 435747]” belongs 0%.
Still for that read-out and setting: under “435635 (antisense e[5mC]*eA*dT*dG*dA*dT*dG*dA*dA*dA*dT*d[5mC]*eT*e[5mC]) [compound 435635]” stands 0%.
Still for that read-out and setting: to “435640 (antisense eT*eG*dT*dA*dA*dG*dA*dA*dA*dT*d[5mC]*d[5mC]*eA*eG) [compound 435640]” belongs 2%; to “435662 (antisense eT*eG*dG*dA*dT*dA*dT*dT*d[5mC]*dA*dA*d[5mC]*eT*eG) [compound 435662]”, 19%; to “435767 (antisense e[5mC]*eA*d[5mC]*d[5mC]*dA*dA*dG*dT*dT*dT*dA*dT*eG*eG) [compound 435767]”, 0%.
Take “435641 (antisense eG*eG*dT*d[5mC]*d[5mC]*d[5mC]*d[5mC]*dA*dT*d[5mC]*dA*d[5mC]*eT*eG) [compound 435641]”: the “% inhibition of human Factor 7 mRNA” value in data set [1] is on record as 51%.
The same measure, in the same setting: under “435821 (antisense eA*eG*dT*d[5mC]*dA*dG*dT*dA*d[5mC]*dA*dG*dA*e[5mC]*eA) [compound 435821]” stands 0%; under “435490 (antisense e[5mC]*e[5mC]*dT*dG*dG*dT*dG*dT*dA*d[5mC]*dA*d[5mC]*e[5mC]*e[5mC]) [compound 435490]”, 49%; under “435825 (antisense e[5mC]*eT*dG*dG*dT*dT*dT*dT*dG*dG*dA*dG*eG*eA) [compound 435825]”, 0%.
On to “416438 (antisense e[5mC]*eA*eG*eG*eA*dG*d[5mC]*d[5mC]*d[5mC]*d[5mC]*d[5mC]*dA*dT*dT*d[5mC]*eT*eG*eG*e[5mC]*eA) [compound 416438]”, for which the “% Inhibition of human Factor 7 mRNA levels” value in data set [2] worked out at 63%. The “percent inhibition of Factor 7 mRNA, 6.25 nM” value in data set [3] (6.25 nM) came to 11%. Further, the “percent inhibition of Factor 7 mRNA, 12.5 nM” value in data set [3] (12.5 nM) came to 33%. The “percent inhibition of Factor 7 mRNA, 25.0 nM” value in data set [3] (25.0 nM) was 56%. The “percent inhibition of Factor 7 mRNA, 50.0 nM” value in data set [3] (50.0 nM) worked out at 75%. Further, the “percent inhibition of Factor 7 mRNA, 100.0 nM” value in data set [3] (100.0 nM) stood at 82%.
